How the values were obtained:
[1] = molecular target: T1, Farnesyl pyrophosphate synthase (Homo sapiens, UniProt P14324); assay: Inhibition of N-terminal His-tagged human FPPS expressed in Escherichia coli
T1 sequence (P14324 whole entry): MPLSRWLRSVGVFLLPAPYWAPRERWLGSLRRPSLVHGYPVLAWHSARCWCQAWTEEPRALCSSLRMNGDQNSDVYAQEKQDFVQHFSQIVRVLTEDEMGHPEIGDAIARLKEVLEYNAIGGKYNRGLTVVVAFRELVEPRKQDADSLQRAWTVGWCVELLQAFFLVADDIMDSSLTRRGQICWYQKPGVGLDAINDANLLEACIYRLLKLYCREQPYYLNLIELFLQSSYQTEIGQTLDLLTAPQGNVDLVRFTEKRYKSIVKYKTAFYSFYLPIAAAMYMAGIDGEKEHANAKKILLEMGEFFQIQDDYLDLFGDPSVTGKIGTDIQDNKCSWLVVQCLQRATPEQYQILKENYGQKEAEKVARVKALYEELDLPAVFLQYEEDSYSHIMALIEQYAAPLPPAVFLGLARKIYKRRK

[2] = molecular target: T2, Farnesyl pyrophosphate synthase (Homo sapiens) (UniProt P14324); assay: Inhibition of N-terminal His-tagged human FPPS expressed in Escherichia coli at 1 uM
T2 sequence (whole entry): T1 sequence (P14324 whole entry)

[3] = molecular target: T2, Farnesyl pyrophosphate synthase (Homo sapiens); assay: Inhibition of N-terminal His-tagged human FPPS expressed in Escherichia coli at 10 uM

O=P(O)(O)C(F)(Cc1cncc(-c2cn[nH]c2)c1)P(=O)(O)O
IC50 [1]: 650 nM
inhibition [2]: > 50%

O=P(O)(O)C(F)(Cc1cncc(-c2cccc3[nH]ncc23)c1)P(=O)(O)O
inhibition [3]: 81%

Cc1noc(C)c1-c1cncc(CC(F)(P(=O)(O)O)P(=O)(O)O)c1
inhibition [3]: 86%

O=P(O)(O)C(F)(Cc1cncc(-c2ccc3[nH]ncc3c2)c1)P(=O)(O)O
IC50 [1]: 700 nM
inhibition [2]: > 50%

Source: ChEMBL document CHEMBL1255548, “Novel bisphosphonate inhibitors of the human farnesyl pyrophosphate synthase” (Bioorg Med Chem Lett, 2010)
